# Measured values published in ChEMBL document CHEMBL1201862, “PubChem BioAssay data set” (2004).
# Calls of active or inactive are those of the source. Unless noted, no cut-off for these calls is given here.
# Tests used:
# [1] = NIH-3T3 fibroblast cytotoxicity, dose response, cytotoxicity control, cell-based, fluorescence, Alamar Blue, secondary assay (AID 2327); format: functional;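 note: NIH-3T3 mouse fibroblasts cultured with fluconazole at 8 µg/mL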
# [2] = C. albicans growth with fluconazole, confirmation, fluorescence, retest (AID 2467); format: functional, cell-based
# [3] = target: Induced myeloid leukemia cell differentiation protein Mcl-1 (Homo sapiens, UniProt Q07820); test: MCL1-BIM BH3 interaction inhibitors, dose response, biochemical, fluorescence polarization, BIM-BH3 peptide, 1536-well (AID 2217)
# Bcl-2-like protein 1 = Bcl-2-like protein 1 (Homo sapiens, UniProt Q07817); test: BCL-XL inhibitors, dose response, selectivity assay for MCL1 inhibitor project, biochemical, fluorescence polarization, 1536-well (AID 2218)
# [4] = cytotoxicity in L-6 rat myocytes, dose response, cytotoxicity control, cell-based, plate reader, cherry-pick (AID 651896); format: functional
# [5] = L. donovani amastigote growth inhibition, dose response, axenic amastigotes, plate reader, cherry pick (AID 651891); format: functional, cell-based; conditions: Leishmania donovani
# [6] = intracellular Trypanosoma cruzi inhibitors in host cells – cell-based, plate reader, cherry-pick samples, set 3, dose response (AID 651818); format: functional;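 note: compounds incubated with infected cells for about four days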
# [7] = T. b. rhodesiense proliferation inhibition, dose response, STIB900 strain, plate reader, cherry pick (AID 651893); format: functional, cell-based; conditions: Trypanosoma brucei
# [8] = P. falciparum blood-stage growth inhibition, dose response, NF54 strain, plate reader, dry powder (AID 651889); format: functional, cell-based
# [9] = L-6 rat myoblast cytotoxicity, dose response, counter-screen for T. cruzi inhibitor project, cell-based, plate reader, dry powder (AID 651895); format: functional
# [10] = T. cruzi growth inhibition in host cells, dose response, cell-based, plate reader, dry powder, set 2 (AID 652275); format: functional
# [11] = growth inhibition of intracellular T. cruzi, dose response, cell-based, plate reader, dry powder samples (AID 651845); format: functional
# [12] = T. cruzi intracellular amastigote growth inhibition, dose response, imaging, CA-I/72 strain, bovine embryo skeletal muscle, dry powder (AID 651885); format: functional, cell-based
# [13] = L. donovani amastigote growth inhibition, dose response, axenic amastigotes, plate reader, dry powder (AID 651892); format: functional, cell-based
# [14] = T. cruzi amastigote growth inhibition, dose response, Tulahuen strain, L-6 host cells, dry powder (AID 651890); format: functional, cell-based
# [15] = T. b. rhodesiense proliferation inhibition, dose response, STIB900 strain, plate reader, dry powder (AID 651894); format: functional, cell-based
# [16] = HT-29 colorectal cell cytotoxicity over time, dose response, HRas target identification project, CellTiter-Glo, multiple timepoints, dry powder (AID 720598); format: functional, cell-based
# [17] = SR lymphoma cell viability over time, late-stage follow-up, mechanism study for HRAS target identification, CellTiter-Glo ATP luminescence, 8-48 h, dry powder (AID 720608); format: functional, cell-based
# [18] = SNB-19 glioblastoma cell viability over time, late-stage follow-up, mechanism study for HRAS target identification, CellTiter-Glo ATP luminescence, 8-48 h, dry powder (AID 720611); format: functional, cell-based
# [19] = LOX IMVI melanoma cell viability loss, dose response, HRAS target identification, CellTiter-Glo ATP luminescence, 8/24/48 h, dry powder (AID 720602); format: functional, cell-based
# [20] = C2C12 myoblast ATP-based viability loss, dose response, cytotoxicity control for HRAS target identification, cell-based, CellTiter-Glo ATP luminescence, 8/24/48 h, dry powder (AID 720603); format: functional
# [21] = SNB-19 glioblastoma cell viability loss, dose response, HRAS target identification, Alamar Blue fluorescence, 8/24/48 h, dry powder (AID 720600); format: functional, cell-based
# [22] = U-251 glioblastoma cell viability loss, dose response, HRAS target identification, Alamar Blue fluorescence, 8/24/48 h, dry powder (AID 720605); format: functional, cell-based
# [23] = CCRF-CEM leukemia cell viability loss, dose response, HRAS target identification, CellTiter-Glo ATP luminescence, 8/24/48 h, dry powder (AID 720607); format: functional, cell-based
# [24] = cytotoxicity in HPDE-C7 cells, cell-based, fluorescence, HTS (AID 430); format: functional; conditions: Homo sapiens
# [25] = inhibitors of intracellular T. cruzi replication, confirmation, NIH3T3 host cells, beta-gal luminescence (AID 2044); format: functional, cell-based;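 note: intracellular parasites grown in NIH/3T3 mouse fibroblasts as host cells; luminescent beta-galactosidase reporter signal from transgenic T. cruzi replicating inside host cells; inhibitors lower the luminescence signal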
# [26] = microbe, parasite or virus in culture; format: functional; conditions: Mycobacterium tuberculosis
# [27] = cytotoxicity in KRAS-transformed pancreatic duct cells, primary screen, cell-based, fluorescence, HTS (AID 431); format: functional; conditions: Homo sapiens;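 note: cell line used: HPDE-C7K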
# [28] = growth suppression of PTEN-null colon cells, dose response, cell-based, HCT116 PTEN knockout (AID 1047); format: functional;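 note: HCT116 colon tumor cells with PTEN knocked out; cells exposed to compound for 60 hours before readout; potency for loss of cell viability measured by luminescence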
# [29] = cytotoxicity toward NIH3T3 fibroblasts, dose response, counter-screen, cell-based, ATP luminescence, mouse fibroblasts (AID 2010); format: functional;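 note: cells exposed to compound for about 90 hours before reading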
# [30] = growth suppression of beta-catenin-knockout colon cells, dose response, cell-based, HCT116, human colon tumor (AID 1045); format: functional;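 note: HCT116 colon tumor cells with beta catenin knocked out; cells exposed to compound for 60 hours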
# [31] = cytotoxicity in HEK-293T cells, dose response, cytotoxicity control for BCR NF-kB inhibitor project, luminescence, B-cell screen hits (AID 489021); format: functional, cell-based;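 note: HEK-293T cells carrying an NF-kB luciferase reporter; cells exposed to compound for about 14 hours before viability readout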
# [32] = target: G-protein coupled receptor 183 (Homo sapiens, UniProt P32249); test: SAR confirmation of small molecule antagonists of the EBI2 receptor via a luminescent beta-arrestin assa.; format: functional
# cells [33] = conditions: HEK293
# [34] = P. falciparum 3D7-ScDHODH growth inhibitors, dose response, SYBR Green, dry powder samples (AID 1159570); format: functional, cell-based;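 note: parasite growth measured after 72 hours of compound exposure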
# [35] = P. falciparum Dd2 growth inhibitors, dose response, SYBR Green, dry powder samples, set 9 (AID 1159568); format: functional, cell-based
# [36] = P. falciparum Dd2 growth inhibitors, dose response, SYBR Green, cherry-picked samples (AID 1159567); format: functional, cell-based
# [37] = P. falciparum Dd2 growth inhibitors, dose response, SYBR Green, dry powder samples (AID 1159566); format: functional, cell-based;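 note: potency for growth inhibition with lower SYBR green DNA signal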
# [38] = Plasmodium falciparum Dd2 Sybr green parasite growth Measured in Cell-Based and Microorganism Combination System Using Plate Reader - 2153-01_Inhibitor_Dose_DryPowder_Activity_Set3.; format: functional
# [39] = P. falciparum ATP4 D1247Y mutant growth inhibitors, dose response, NITD609-resistant line, SYBR Green, dry powder (AID 1159571); format: functional, cell-based;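 note: parasites synchronized at ring stage by sorbitol before testing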
# [40] = Dose-response inhibition of insulin secretion in a rat insulinoma line at 5 mM glucose (AID 1117331); format: functional, cell-based; conditions: INS-1E
# cells [41] = format: functional, cell-based; conditions: INS-1E
# Chain of Induced myeloid leukemia cell differentiation protein Mcl-1 (Q07820 whole entry): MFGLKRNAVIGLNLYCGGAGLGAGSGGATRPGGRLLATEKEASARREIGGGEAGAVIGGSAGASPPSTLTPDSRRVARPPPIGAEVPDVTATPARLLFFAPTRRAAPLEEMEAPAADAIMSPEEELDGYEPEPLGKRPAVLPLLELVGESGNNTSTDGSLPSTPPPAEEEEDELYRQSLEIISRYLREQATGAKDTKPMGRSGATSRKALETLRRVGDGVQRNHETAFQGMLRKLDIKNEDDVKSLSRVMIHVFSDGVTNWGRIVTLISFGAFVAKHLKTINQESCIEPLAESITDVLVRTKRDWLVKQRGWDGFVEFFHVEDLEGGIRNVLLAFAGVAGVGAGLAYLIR
# Chain of G-protein coupled receptor 183 (P32249 whole entry): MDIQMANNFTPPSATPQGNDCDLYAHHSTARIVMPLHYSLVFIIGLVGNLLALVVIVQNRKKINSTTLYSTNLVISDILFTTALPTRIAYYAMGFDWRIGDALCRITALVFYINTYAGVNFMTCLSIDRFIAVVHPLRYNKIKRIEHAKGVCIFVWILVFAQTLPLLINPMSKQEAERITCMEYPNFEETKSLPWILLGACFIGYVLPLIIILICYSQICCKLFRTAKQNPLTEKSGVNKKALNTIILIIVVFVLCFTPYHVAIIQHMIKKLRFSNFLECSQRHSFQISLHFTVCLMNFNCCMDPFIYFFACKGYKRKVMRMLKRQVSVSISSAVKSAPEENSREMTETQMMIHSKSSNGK
# Chain of Bcl-2-like protein 1 (Q07817 whole entry): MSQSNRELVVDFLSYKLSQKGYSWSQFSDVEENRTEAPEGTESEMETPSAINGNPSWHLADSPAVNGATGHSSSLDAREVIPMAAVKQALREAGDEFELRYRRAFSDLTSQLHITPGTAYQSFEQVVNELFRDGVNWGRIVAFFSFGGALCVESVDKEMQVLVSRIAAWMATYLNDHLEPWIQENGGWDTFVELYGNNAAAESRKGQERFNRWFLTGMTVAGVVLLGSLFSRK
smiles,measurement,setting,value
C=CCc1cccc(/C=N/NC(=O)CNc2cccc3ccccc23)c1O,EC50,[1],> 150000 nM (inactive)
same,EC50,[2],3280 nM (active)
same,IC50,[3],> 109000 nM (not active)
same,IC50,Bcl-2-like protein 1,> 109000 nM (not active)
C[C@H]1CN([C@@H](C)CO)C(=O)c2cccc(NC(=O)c3ccncc3)c2O[C@@H]1CN(C)Cc1ccc(Oc2ccccc2)cc1,IC50,[4],14400 nM (active)
same,IC50,[5],13200 nM (inactive)
same,AC50,[6],80 nM (active)
same,IC50,[7],5780 nM (inactive)
same,IC50,[8],504 nM (inactive)
same,IC50,[9],17100 nM (inactive)
same,AC50,[10],4.42 nM (active)
same,AC50,[11],0.457 nM (active)
same,IC50,[12],0.66 nM (active)
same,IC50,[13],8400 nM (inactive)
same,IC50,[14],29.5 nM (active)
same,IC50,[15],1500 nM (inactive)
C#CCCCC(=O)NCCOCCOCCOc1ccc(N(C(=O)CCl)C(C(=O)NCCc2ccccc2)c2cccs2)cc1Cl (configuration not stated),AC50,[16],4900 nM (active)
same,AC50,[17],1180 nM (active)
same,AC50,[18],4540 nM (active)
same,AC50,[19],993 nM (active)
same,AC50,[20],16600 nM (active)
same,AC50,[21],22400 nM (active)
same,AC50,[22],1250 nM (active)
same,AC50,[23],1380 nM (active)
CCC(C)NC(=O)c1c(N)n(/N=C/c2ccccn2)c2nc3ccccc3nc12 (configuration not stated),EC50,[24],4730 nM (active)
same,EC50,[25],2180 nM (active)
same,CC50,[26],> 40000 nM (active)
same,EC50,[27],6390 nM (active)
same,EC50,[28],32300 nM (active)
same,EC50,[29],> 30000 nM (not active)
same,EC50,[30],30200 nM (active)
same,IC50,[31],43200 nM (inactive)
O=C(CCc1ccc(F)cc1)N1CCN(S(=O)(=O)/C=C/c2ccccc2)CC1,IC50,[32],113 nM (active)
Cc1ccc(C(C)C)c(OCCn2/c(=N/C#N)[nH]c3ccccc32)c1,AC50,cells [33],34000 nM (active)
CO[C@@H]1CN(C)C(=O)c2ccc(NC(=O)Nc3ccccc3F)cc2OC[C@@H](C)N(Cc2ccccc2F)C[C@H]1C,AC50,[34],948 nM (active)
same,AC50,[35],674 nM (active)
same,AC50,[36],356 nM (active)
same,AC50,[37],44.9 nM (active)
same,AC50,[38],586 nM (active)
same,AC50,[39],122 nM (active)
CCOc1cc(CC(=O)N[C@@H](CC(C)C)c2ccccc2N2CCCCC2)ccc1C(=O)O [REPAGLINIDE],IC50,[40],27 nM (active)
same,IC50,cells [41],136 nM (active)
